Data: patent US20190270992A1, “METHODS OF CONTROLLING RED BLOOD CELL PRODUCTION” (WISCONSIN ALUMNI RESEARCH FOUNDATION, priority 2018, published 2019)
Entries after “also recorded” stand apart in the source; their conditions may differ.

What was measured:
G1E-ER-GATA-1 cells = experiment: 5-ALA rescue of heme biosynthesis, qRT-PCR of zinc transporter genes; assay type: cell-based, murine; conditions: 1 mM 5-ALA to bypass ALAS-2 and rescue heme biosynthesis; FIG. 3B
Procedure: Cell culture. G1E-ER-GATA-1 cells were cultured in Iscove's modified Dulbecco's medium (IMDM; Gibco) containing 15% FBS (Gemini), 1% penicillin-streptomycin (Gemini), 2 U/ml erythropoietin (Amgen), 120 nM monothioglycerol (Sigma), and 0.6% conditioned medium from a Kit ligand-producing CHO cell line, and 1 μg/ml puromycin (Gemini). ER-GATA-1 activity was induced by adding 1 μM β-estradiol (Steraloids) to media. To rescue heme synthesis, 1 mM 5-aminolevulinic acid hydrochloride (5-ALA; Sigma) was added to media.
(§1) qRT-PCR. Total RNA was purified from 0.4-2×10^6 cells with TRIzol® (Life Technologies). RNA was treated with DNase I (Life Technologies) for 15 min at room temperature. DNase I was inactivated by EDTA and heating at 65° C. for 10 min. DNase I-treated RNA was incubated with 125 ng of a 5:1 mixture of oligo (dT) primers and random hexamer at 68° C. for 10 min. RNA/primers were incubated with Moloney MLV reverse transcriptase (Life Technologies), 10 mM DTT (Life Technologies), RNAsin® (Promega), and 0.5 mM deoxynucleoside triphosphates at 42° C. for 1 h, and then heat inactivated at 98° C. for 5 min. Real-time PCR reactions were conducted with Power SYBR® Green Master Mix (Applied Biosystems) using ViiA™ 7 Real-Time PCR system (Applied Biosystems). Primer sequences are described in Table 1.

[1] = test system: mononuclear cells from G-CSF-mobilized peripheral blood; experiment: qRT-PCR of gene expression after succinylacetone in human erythroid differentiation culture; assay type: cell-based; conditions: succinylacetone vs no treatment, day 19 and 20
Procedure: Primary human mononuclear cells were isolated from G-CSF-mobilized peripheral blood using Histopaque® (Sigma). Cells were maintained in StemSpan™ SFEM medium (Stem Cell Technologies) supplemented with 1×CC100 cytokine mix (Stem Cell Technologies) for 4 days. To induce differentiation, cells were cultured in basal differentiation media [IMDM containing 15% FBS, 2 mM L-glutamine, 1% BSA (Sigma), 500 μg/ml holo human transferrin (Sigma), and 10 [μg/ml insulin (Sigma)] supplemented with 1 μM dexamethasone (Sigma), 1 μM β-estradiol (Steraloids), 5 ng/ml IL-3, 100 ng/ml SCF, and 6 U/ml erythropoietin (Amgen) for 5 days, followed by four days in basal differentiation media supplemented with 50 ng/ml SCF and 6 U/ml erythropoietin and then seven days in basal differentiation media containing 2 U/ml erythropoietin.
as §1

[2] = test system: mononuclear cells from G-CSF-mobilized peripheral blood; experiment: Cellularity after succinylacetone (flow cytometry, Wright-Giemsa staining); assay type: cell-based, human; conditions: succinylacetone during the last four days of culture
Procedure: (§2) Primary human mononuclear cells were isolated from G-CSF-mobilized peripheral blood using Histopaque® (Sigma). Cells were maintained in StemSpan™ SFEM medium (Stem Cell Technologies) supplemented with 1×CC100 cytokine mix (Stem Cell Technologies) for 4 days. […]
(§3) Flow cytometry. For intracellular zinc quantitation in mouse cells, cells were washed twice with PBS and incubated with 1 l/ml Ghost Dye™ Red 780 (TONBO Biosciences) for 30 min at 4° C. […] Cells were then washed twice with PBS and analyzed. […] Cells were then washed twice with PBS and analyzed. For intracellular zinc quantitation in human cells, cells were washed twice with HBSS and incubated with HBSS containing 1 μM FluoZin™-3 AM, 0.02% Pluronic® F-127, PE-conjugated anti-human CD71 (0.024 μg in 100 μl, eBioscience, 12-0719-42), and APC-conjugated anti-human CD235a (0.006 μg in 100 μl, eBioscience 17-9987-42) for 30 min at room temperature. […] Cells were then washed twice with PBS, stained with DAPI, and analyzed. Samples were analyzed using a BD LSR II (BD Biosciences). […]

[3] = test system: mononuclear cells from G-CSF-mobilized peripheral blood; experiment: Heme quantitation after succinylacetone in human erythroid differentiation culture; assay type: cell-based; conditions: succinylacetone during the last four days of culture; day 20
Procedure: as §2
Heme quantitation. […] Electronic absorption spectra of cleared lysates were recorded on a Varian Cary 4 Bio spectrophotometer, and the oxyhemoglobin concentration of each cleared lysate was calculated using extinction coefficients at 542 nm and 577 nm for human oxyhemoglobin monomers. Total heme in each cleared lysate was determined for two technical replicates using the pyridine hemochrome assay in which 200 μl of a stock solution of 0.1 N NaOH and 33% (v/v) pyridine was combined with 100 μl of the cleared lysate. Upon addition of 2-5 mg of sodium dithionite, electronic absorption spectra were recorded, and total heme concentrations were calculated using known extinction coefficients of the ferrous bis(pyridine) protoheme complex at 525 nm and 556 nm as is known in the art.

[4] = test system: lineage-negative fetal liver-derived hematopoietic precursors; experiment: Zinc chelation with TPEN and ZnCl2 add-back, flow cytometry (FluoZin-3, live/dead, CD71, Ter119); assay type: cell-based, murine
Procedure: (§4) Primary erythroid precursors from E14.5 murine fetal livers were cultured in StemPro®-34 (Gibco) supplemented with 10% nutrient supplement (Gibco), 1×L-glutamine (Cellgro), 1% penicillin-streptomycin (Gemini), 0.1 mM monothioglycerol (Sigma), 1 NM dexamethasone (Sigma), 0.5 U/ml erythropoietin (Amgen), and 1% conditioned medium from a Kit ligand-producing CHO cell line (expansion culture). To chelate zinc, 10 NM N,N,N′,N′-Tetrakis(2-pyridylmethyl)ethylenediamine (TPEN, Sigma, P4413) was added to the media, and 20 NM ZnCl2 (Fisher Scientific) was added back. After two days, cells were differentiated in IMDM (Gibco) containing 10% FBS (Gemini), 10% plasma-derived serum (PDS; Animal Technologies), 5% protein-free hybridoma medium II (PFHM II; Gibco), 1% penicillin-streptomycin (Gemini), 0.1 mM monothioglycerol (Sigma) and 6 U/ml of erythropoietin (Amgen).
Flow cytometry. For intracellular zinc quantitation in mouse cells, cells were washed twice with PBS and incubated with 1 l/ml Ghost Dye™ Red 780 (TONBO Biosciences) for 30 min at 4° C. Cells were washed once with PBS containing 2% FBS and twice with HBSS, and treated with HBSS containing 1 μM FluoZin™-3 AM (Invitrogen), 0.02% Pluronic® F-127 (Invitrogen), BV421-conjugated anti-mouse CD71 (0.2 μg in 100 μl, Biolegend, 113813), and APC-conjugated anti-mouse Ter119 (0.2 μg in 100 μl, Biolegend, 116212) for 30 min at room temperature. Cells were washed once with HBSS and incubated for 15 min at room temperature. Cells were then washed twice with PBS and analyzed. […] Cells were then washed twice with PBS and analyzed. For intracellular zinc quantitation in human cells, cells were washed twice with HBSS and incubated with HBSS containing 1 μM FluoZin™-3 AM, 0.02% Pluronic® F-127, PE-conjugated anti-human CD71 (0.024 μg in 100 μl, eBioscience, 12-0719-42), and APC-conjugated anti-human CD235a (0.006 μg in 100 μl, eBioscience 17-9987-42) for 30 min at room temperature. […] Cells were then washed twice with PBS, stained with DAPI, and analyzed. Samples were analyzed using a BD LSR II (BD Biosciences). […]

[5] = test system: lineage-negative hematopoietic precursors (E14.5); experiment: Intracellular zinc (FluoZin-3 flow cytometry) in shRNA knockdown cells; assay type: cell-based, murine
Procedure: as §4, with “After two days, cells were differentiated in IMDM (Gibco) containing 10% FBS (Gemini), 10% plasma-derived serum (PDS; Animal Technologies), 5% protein-free hybridoma medium II (PFHM II; Gibco), 1% penicillin-streptomycin (Gemini), 0.1 mM monothioglycerol (Sigma) and 6 U/ml of erythropoietin (Amgen).” left out
as §3

Slc39a8 mRNA = experiment: shRNA-mediated knockdown, qRT-PCR of Slc39a8 mRNA; assay type: cell-based, mouse; conditions: Luciferase shRNA as control
Procedure: as §4
(§5) qRT-PCR. Total RNA was purified from 0.4-2×10^6 cells with TRIzol® (Life Technologies). RNA was treated with DNase I (Life Technologies) for 15 min at room temperature. DNase I was inactivated by EDTA and heating at 65° C. for 10 min. DNase I-treated RNA was incubated with 125 ng of a 5:1 mixture of oligo (dT) primers and random hexamer at 68° C. for 10 min. […]

Slc30a1 mRNA = experiment: shRNA-mediated knockdown, qRT-PCR of Slc30a1 mRNA; assay type: cell-based, mouse; conditions: off-target check
Procedure: as §4, §5

[6] = test system: lineage-negative hematopoietic precursors (E14.5); experiment: Thiazole orange (TO) discrimination of nucleated erythroblasts and enucleated progeny in shRNA knockdown cells; assay type: cell-based, murine; conditions: expanded 2 days, differentiated 3 days
Procedure: as §4, with “After two days, cells were differentiated in IMDM (Gibco) containing 10% FBS (Gemini), 10% plasma-derived serum (PDS; Animal Technologies), 5% protein-free hybridoma medium II (PFHM II; Gibco), 1% penicillin-streptomycin (Gemini), 0.1 mM monothioglycerol (Sigma) and 6 U/ml of erythropoietin (Amgen).” left out
as §3

[7] = test system: lineage-negative hematopoietic precursors (E14.5); experiment: Erythroid populations (CD71, Ter119, FSC-A flow cytometry) in shRNA knockdown cells; assay type: cell-based, murine; conditions: day 5
Procedure: as §4, with “After two days, cells were differentiated in IMDM (Gibco) containing 10% FBS (Gemini), 10% plasma-derived serum (PDS; Animal Technologies), 5% protein-free hybridoma medium II (PFHM II; Gibco), 1% penicillin-streptomycin (Gemini), 0.1 mM monothioglycerol (Sigma) and 6 U/ml of erythropoietin (Amgen).” left out
as §3

## Cl.NCC(=O)CCC(=O)O [5-ALA, 5-aminolevulinic acid hydrochloride]
G1E-ER-GATA-1 cells
  Slc30a1 expression: increased

## CC(=O)CC(=O)CCC(=O)O [Succinylacetone, succinylacetone]
[1]
  ACTB expression: unaffected
  HBA1 expression: reduced
  HBB expression: reduced
  SLC30A1 expression: reduced
[2]
  cellularity: did not impact
[3]
  decrease of heme in oxyhemoglobin: 3.4 fold
  decrease of total heme: 2.9 fold

## c1ccc(CN(CCN(Cc2ccccn2)Cc2ccccn2)Cc2ccccn2)nc1 [TPEN, N,N,N′,N′-Tetrakis(2-pyridylmethyl)ethylenediamine]
[4]; 10 NM TPEN in expansion culture, day 3
  live cell population: considerably decreased
[4]; 10 NM TPEN in expansion culture, FluoZin-3 MFI
  intracellular zinc levels in erythroid precursors of varying maturation stage: reduced

## [Cl-].[Cl-].[Zn+2] [ZnCl2]
[4]; 10 NM TPEN, 20 NM ZnCl2 added back
  effect of adding ZnCl2 to the media on the actions of TPEN: negated the actions of TPEN

## TGATAATTGTCACTGACAG (listed as DNA, chemistry not fully specified) [shRNAs targeting Slc39a8, retrovirus-expressed shRNA against mouse zinc importer Slc39a8]
[5]; erythroid differentiation culture, day 5
  intracellular zinc in all (more mature) populations: no effect; also recorded: did not alter
[5]; expansion culture, day 2
  decrease of intracellular zinc in R3 cells: 3.3 fold
Slc39a8 mRNA; day five (expanded two days, differentiated three days)
  downregulation of Slc39a8 mRNA: 71%
Slc39a8 mRNA; day two (expanded for two days)
  downregulation of Slc39a8 mRNA: 86%
Slc30a1 mRNA
  Slc30a1 mRNA levels upon Slc39a8 loss: did not impact
[6]
  cell populations (CD71/TO): did not influence
[7]
  cellularity: did not impact
